One assay relates to RERF-LC-KJ. The experiment in a line: relative viability (nuclei count vs DMSO), 5 days (fraction); higher = more cells survive. Particulars: first compound 0.8 µM. In short, it runs like this: (§1)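 Relative viability is defined as nuclei in treated wells over nuclei in vehicle wells. Duplicate plates were run and medians reported. Lung cancer cell lines in 1536-well plates were dosed by pin tool one day after seeding, with one drug or with a fixed anchor-drug dose plus five library-drug doses (not always all listed) in √10 steps, and nuclei were counted after 5 days.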
In the case of `CCCCCCCCCCCC1=C(O)C(=O)C=C(O)C1=O` [Embelin] + O=C(c1cc(Cc2n[nH]c(=O)c3ccccc23)ccc1F)N1CCN(C(=O)C2CC2)CC1 [Olaparib] (partner 8 µM), the relative viability is 0.956.
Regarding `CCCCCCCCCCCC1=C(O)C(=O)C=C(O)C1=O` [Embelin] + CC(=O)Nc1cccc(-n2c(=O)n(C3CC3)c(=O)c3c(Nc4ccc(I)cc4F)n(C)c(=O)c(C)c32)c1 [Trametinib] (partner 0.02 µM), the relative viability is 0.977.
As to `CCCCCCCCCCCC1=C(O)C(=O)C=C(O)C1=O` [Embelin] + Nc1ncn([C@H]2C[C@H](O)[C@@H](CO)O2)c(=O)n1 [Decitabine] (partner 2 µM), the relative viability came out at 0.652.
On the same count and under the same terms, in the case of `CCCCCCCCCCCC1=C(O)C(=O)C=C(O)C1=O` [Embelin] + NC(=O)Nc1cc(-c2cccc(F)c2)sc1C(=O)N[C@H]1CCCNC1 [AZD7762] (partner 0.2 µM) it was 1.15.

The assay is the same for the next values; noted with them: first compound 2.53 µM.
The compound `CCCCCCCCCCCC1=C(O)C(=O)C=C(O)C1=O` [Embelin] + N=C(N)NC(=N)NCCc1ccccc1 [Phenformin] (partner 250 µM) yielded a relative viability of 0.418.
Compound `CCCCCCCCCCCC1=C(O)C(=O)C=C(O)C1=O` [Embelin] + O=C(c1cc(Cc2n[nH]c(=O)c3ccccc23)ccc1F)N1CCN(C(=O)C2CC2)CC1 [Olaparib] (partner 8 µM) showed a relative viability of 1.02.
Compound `CCCCCCCCCCCC1=C(O)C(=O)C=C(O)C1=O` [Embelin] + CC(=O)Nc1cccc(-n2c(=O)n(C3CC3)c(=O)c3c(Nc4ccc(I)cc4F)n(C)c(=O)c(C)c32)c1 [Trametinib] (partner 0.02 µM) returned a relative viability of 0.896.
Still for that read-out and setting: the value for `CCCCCCCCCCCC1=C(O)C(=O)C=C(O)C1=O` [Embelin] + Nc1ncn([C@H]2C[C@H](O)[C@@H](CO)O2)c(=O)n1 [Decitabine] (partner 2 µM) was 0.774; that for `CCCCCCCCCCCC1=C(O)C(=O)C=C(O)C1=O` [Embelin] + NC(=O)Nc1cc(-c2cccc(F)c2)sc1C(=O)N[C@H]1CCCNC1 [AZD7762] (partner 0.2 µM) was 1.13.

Staying with this assay, now noted: first compound 8 µM.
Consider `CCCCCCCCCCCC1=C(O)C(=O)C=C(O)C1=O` [Embelin] + N=C(N)NC(=N)NCCc1ccccc1 [Phenformin] (partner 250 µM), for which the relative viability came out at 0.356.
For the compound `CCCCCCCCCCCC1=C(O)C(=O)C=C(O)C1=O` [Embelin] + O=C(c1cc(Cc2n[nH]c(=O)c3ccccc23)ccc1F)N1CCN(C(=O)C2CC2)CC1 [Olaparib] (partner 8 µM), the relative viability was 0.48.
Take `CCCCCCCCCCCC1=C(O)C(=O)C=C(O)C1=O` [Embelin] + CC(=O)Nc1cccc(-n2c(=O)n(C3CC3)c(=O)c3c(Nc4ccc(I)cc4F)n(C)c(=O)c(C)c32)c1 [Trametinib] (partner 0.02 µM): the relative viability amounted to 0.853.
In the case of `CCCCCCCCCCCC1=C(O)C(=O)C=C(O)C1=O` [Embelin] + Nc1ncn([C@H]2C[C@H](O)[C@@H](CO)O2)c(=O)n1 [Decitabine] (partner 2 µM), the relative viability amounted to 0.514.
`CCCCCCCCCCCC1=C(O)C(=O)C=C(O)C1=O` [Embelin] + NC(=O)Nc1cc(-c2cccc(F)c2)sc1C(=O)N[C@H]1CCCNC1 [AZD7762] (partner 0.2 µM) registered a relative viability of 1.

The subject of a further assay is UMC-11. Described as above. Particulars: first compound 0.08 µM. In short, it runs like this:
as §1
Consider `CCCCCCCCCCCC1=C(O)C(=O)C=C(O)C1=O` [Embelin] + N=C(N)NC(=N)NCCc1ccccc1 [Phenformin] (partner 250 µM), for which the relative viability worked out at 0.33.
`CCCCCCCCCCCC1=C(O)C(=O)C=C(O)C1=O` [Embelin] + O=C(c1cc(Cc2n[nH]c(=O)c3ccccc23)ccc1F)N1CCN(C(=O)C2CC2)CC1 [Olaparib] (partner 8 µM) yielded a relative viability of 0.338.
Regarding `CCCCCCCCCCCC1=C(O)C(=O)C=C(O)C1=O` [Embelin] + CC(=O)Nc1cccc(-n2c(=O)n(C3CC3)c(=O)c3c(Nc4ccc(I)cc4F)n(C)c(=O)c(C)c32)c1 [Trametinib] (partner 0.02 µM), the relative viability worked out at 0.698.
The compound `CCCCCCCCCCCC1=C(O)C(=O)C=C(O)C1=O` [Embelin] + Nc1ncn([C@H]2C[C@H](O)[C@@H](CO)O2)c(=O)n1 [Decitabine] (partner 2 µM) showed a relative viability of 0.616.

Staying with this assay, now noted: first compound 0.8 µM.
`CCCCCCCCCCCC1=C(O)C(=O)C=C(O)C1=O` [Embelin] + N=C(N)NC(=N)NCCc1ccccc1 [Phenformin] (partner 250 µM) gave a relative viability of 0.339.
Consider `CCCCCCCCCCCC1=C(O)C(=O)C=C(O)C1=O` [Embelin] + O=C(c1cc(Cc2n[nH]c(=O)c3ccccc23)ccc1F)N1CCN(C(=O)C2CC2)CC1 [Olaparib] (partner 8 µM), for which the relative viability amounted to 0.389.
Compound `CCCCCCCCCCCC1=C(O)C(=O)C=C(O)C1=O` [Embelin] + CC(=O)Nc1cccc(-n2c(=O)n(C3CC3)c(=O)c3c(Nc4ccc(I)cc4F)n(C)c(=O)c(C)c32)c1 [Trametinib] (partner 0.02 µM) yielded a relative viability of 0.869.
On to `CCCCCCCCCCCC1=C(O)C(=O)C=C(O)C1=O` [Embelin] + Nc1ncn([C@H]2C[C@H](O)[C@@H](CO)O2)c(=O)n1 [Decitabine] (partner 2 µM), for which the relative viability came to 0.608.

The assay is the same for the next values; noted with them: first compound 2.53 µM.
The compound `CCCCCCCCCCCC1=C(O)C(=O)C=C(O)C1=O` [Embelin] + N=C(N)NC(=N)NCCc1ccccc1 [Phenformin] (partner 250 µM) gave a relative viability of 0.323.
Consider `CCCCCCCCCCCC1=C(O)C(=O)C=C(O)C1=O` [Embelin] + O=C(c1cc(Cc2n[nH]c(=O)c3ccccc23)ccc1F)N1CCN(C(=O)C2CC2)CC1 [Olaparib] (partner 8 µM), for which the relative viability stood at 0.352.
On the same count and under the same terms, in the case of `CCCCCCCCCCCC1=C(O)C(=O)C=C(O)C1=O` [Embelin] + CC(=O)Nc1cccc(-n2c(=O)n(C3CC3)c(=O)c3c(Nc4ccc(I)cc4F)n(C)c(=O)c(C)c32)c1 [Trametinib] (partner 0.02 µM) it was 0.758; in that of `CCCCCCCCCCCC1=C(O)C(=O)C=C(O)C1=O` [Embelin] + Nc1ncn([C@H]2C[C@H](O)[C@@H](CO)O2)c(=O)n1 [Decitabine] (partner 2 µM), 0.631.

Staying with this assay, now noted: first compound 8 µM.
Compound `CCCCCCCCCCCC1=C(O)C(=O)C=C(O)C1=O` [Embelin] + N=C(N)NC(=N)NCCc1ccccc1 [Phenformin] (partner 250 µM) registered a relative viability of 0.314.
With `CCCCCCCCCCCC1=C(O)C(=O)C=C(O)C1=O` [Embelin] + O=C(c1cc(Cc2n[nH]c(=O)c3ccccc23)ccc1F)N1CCN(C(=O)C2CC2)CC1 [Olaparib] (partner 8 µM), the relative viability was determined as 0.331.
For `CCCCCCCCCCCC1=C(O)C(=O)C=C(O)C1=O` [Embelin] + CC(=O)Nc1cccc(-n2c(=O)n(C3CC3)c(=O)c3c(Nc4ccc(I)cc4F)n(C)c(=O)c(C)c32)c1 [Trametinib] (partner 0.02 µM), the relative viability is 0.593.
Consider `CCCCCCCCCCCC1=C(O)C(=O)C=C(O)C1=O` [Embelin] + Nc1ncn([C@H]2C[C@H](O)[C@@H](CO)O2)c(=O)n1 [Decitabine] (partner 2 µM), for which the relative viability amounted to 0.553.

Source of the values: the supplement of paper PMC10307832.
